Results taken from patent US20230382950A1 (priority 2020, published 2023).
Read-outs that look alike come from different tables or passages of the source. *1 amine or outer side, *2 acyl side, *3 side chain or, on linkers, in order; H or OH if unused. Where a SMILES comes first, the peptide text is derived from it. Bridges are numbered along the chain shown (N, C = ends). [ ]: non-standard residue; d: D form. The star is where a group is joined. Ala(piperidin-4-yl) = O=C([C@H](CC1CCN([*:3])CC1)N[*:1])[*:2]; Malonyl(2,2-Me2,histaminyl) = CC(C)(C(=O)NCCc1cnc[nH]1)C(=O)*; dBip = N[C@H](Cc1ccc(-c2ccccc2)cc1)C(=O)O; Oic = O=C(O)[C@@H]1C[C@@H]2CCCC[C@@H]2N1; Phe(4-Br) = N[C@@H](Cc1ccc(Br)cc1)C(=O)O; hArg = N=C(N)NCCCC[C@H](N)C(=O)O; Pip = O=C(O)[C@@H]1CCCCN1; Nle = CCCC[C@H](N)C(=O)O

Experiments:
[1] = target: T1, human Apelin receptor (Homo sapiens, UniProt P35414); test: β-arrestin accumulation assay, CHO-K1 cells overexpressing human Apelin receptor and β-arrestin (DiscoverRx); assay type: cell-based; set-up: host or cells: CHO-K1 cells
T1 sequence (P35414 1-380): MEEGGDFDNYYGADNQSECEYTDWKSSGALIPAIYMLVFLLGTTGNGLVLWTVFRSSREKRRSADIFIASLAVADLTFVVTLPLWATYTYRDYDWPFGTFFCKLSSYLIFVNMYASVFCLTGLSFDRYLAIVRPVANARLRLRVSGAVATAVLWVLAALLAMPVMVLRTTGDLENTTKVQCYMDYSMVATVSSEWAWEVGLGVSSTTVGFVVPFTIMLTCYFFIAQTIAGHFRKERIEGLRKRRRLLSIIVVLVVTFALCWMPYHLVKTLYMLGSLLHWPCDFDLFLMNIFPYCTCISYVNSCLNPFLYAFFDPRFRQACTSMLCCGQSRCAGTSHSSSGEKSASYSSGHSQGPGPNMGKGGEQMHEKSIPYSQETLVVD
Procedure: β-arrestin assay. […] After 16 h incubation at 37° C. media was removed and cells were incubated at 37° C. for 90 min in serum free media containing increasing concentrations of test agonist. The assay reaction was stopped by adding detection reagent (DiscoveRx) and incubation for 60 min in the dark. Levels of receptor activation were then measured on a PheraStar fluorescence plate reader (BMG LabTech) and EC50 values were determined using Graphpad Prism.

[2] = target: T1, human Apelin receptor; test: cAMP accumulation assay (HTRF), functional agonism, CHO cells stably expressing the human Apelin receptor; assay type: cell-based; conditions: for Emax: CHO
Excerpt: cAMP functional assay. cAMP production was quantified using the Homogeneous Time-Resolved Fluorescence (HTRF) cAMP dynamic-2 assay (Cisbio, France).

For `CC(C)C[C@H](NC(=O)[C@@H](CCCNC(=N)N)NC(=O)[C@@H]1CCCCN1C(=O)[C@H](CCCCNC(=N)N)NC(=O)[C@H](CCC(N)=O)NC(=O)[C@@H](CCCNC(=N)N)NC(=O)C(C)(C)C(=O)NCCc1c[nH]cn1)C(=O)N[C@H]1CCC(=O)NCCCC[C@@H](C(=O)N2[C@H](C(=O)N[C@@H](Cc3ccc(Br)cc3)C(=O)N3CCC[C@H]3C(=O)N[C@H](Cc3ccc(-c4ccccc4)cc3)C(=O)O)C[C@@H]3CCCC[C@@H]32)NC(=O)[C@H](CC2CCNCC2)NC(=O)[C@H](Cc2c[nH]cn2)NC1=O` [Example 1] ({Malonyl(2,2-Me2,histaminyl)}-[dR]Q[hArg][Pip][dR]LEH[Ala(piperidin-4-yl)]K[Oic][Phe(4-Br)]P[dBip]-OH; lactam 7-10), the EC50 [1] was over 10000 nM, the EC50 [2] was 3.16 nM and the Emax [2] was 70.5%.

`CCCC[C@H](NC(=O)[C@@H]1C[C@@H]2CCCC[C@@H]2N1C(=O)[C@@H]1CCCCNC(=O)CC[C@H](NC(=O)[C@H](CC(C)C)NC(=O)[C@@H](CCCNC(=N)N)NC(=O)[C@@H]2CCCCN2C(=O)[C@H](CCCCNC(=N)N)NC(=O)[C@H](CCC(N)=O)NC(=O)[C@@H](CCCNC(=N)N)NC(=O)C(C)(C)C(=O)NCCc2c[nH]cn2)C(=O)N[C@@H](Cc2c[nH]cn2)C(=O)N[C@@H](CC2CCNCC2)C(=O)N1)C(=O)N1CCC[C@H]1C(=O)N[C@H](Cc1ccc(-c2ccccc2)cc1)C(=O)O` [Example 2] ({Malonyl(2,2-Me2,histaminyl)}-[dR]Q[hArg][Pip][dR]LEH[Ala(piperidin-4-yl)]K[Oic][Nle]P[dBip]-OH; lactam 7-10) gave an EC50 [1] of over 10000 nM, an EC50 [2] of 15.8 nM and an Emax [2] of 31.2%.

Compound `CCCC[C@H](NC(=O)[C@@H]1C[C@@H]2CCCC[C@@H]2N1C(=O)[C@@H]1CCCCNC(=O)CC[C@H](NC(=O)[C@H](CC(C)C)NC(=O)[C@@H](CCCNC(=N)N)NC(=O)[C@@H]2CCCCN2C(=O)[C@H](CCCCNC(=N)N)NC(=O)[C@H](CCC(N)=O)NC(=O)[C@@H](CCCNC(=N)N)NC(=O)C(C)(C)C(=O)NCCc2c[nH]cn2)C(=O)N[C@@H](Cc2ccc(Br)cc2)C(=O)N[C@@H](CC2CCNCC2)C(=O)N1)C(=O)N1CCC[C@H]1C(=O)N[C@H](Cc1ccc(-c2ccccc2)cc1)C(=O)O` [Example 4] ({Malonyl(2,2-Me2,histaminyl)}-[dR]Q[hArg][Pip][dR]LE[Phe(4-Br)][Ala(piperidin-4-yl)]K[Oic][Nle]P[dBip]-OH; lactam 7-10) has an EC50 ([1]; read-out: pEC50 (converted)) of over 10000 nM, an Emax ([2]; read-out: Emax) of 28.4% and an EC50 ([2]; read-out: pEC50 (converted)) of 100 nM.

`CC(C)C[C@H](NC(=O)[C@@H](CCCNC(=N)N)NC(=O)[C@@H]1CCCCN1C(=O)[C@H](CCCCNC(=N)N)NC(=O)[C@H](CCC(N)=O)NC(=O)C(C)(C)C(=O)NCCc1c[nH]cn1)C(=O)N[C@H]1CCC(=O)NCCCC[C@@H](C(=O)N2[C@H](C(=O)N[C@@H](Cc3ccc(Br)cc3)C(=O)N3CCC[C@H]3C(=O)N[C@H](Cc3ccc(-c4ccccc4)cc3)C(=O)O)C[C@@H]3CCCC[C@@H]32)NC(=O)[C@H](CC2CCNCC2)NC(=O)[C@H](Cc2c[nH]cn2)NC1=O` [Example 5] ({Malonyl(2,2-Me2,histaminyl)}-Q[hArg][Pip][dR]LEH[Ala(piperidin-4-yl)]K[Oic][Phe(4-Br)]P[dBip]-OH; lactam 6-9) showed an EC50 ([1]; read-out: pEC50 (converted)) of over 10000 nM, an Emax ([2]; read-out: Emax) of 48.2% and an EC50 ([2]; read-out: pEC50 (converted)) of 5.01 nM.

With `CC(C)C[C@@H]1NC(=O)[C@@H](CCCNC(=N)N)NC(=O)[C@@H](NC(=O)[C@H](CCCCNC(=N)N)NC(=O)[C@H](CCC(N)=O)NC(=O)C(C)(C)C(=O)NCCc2c[nH]cn2)CC(=O)NCCCC[C@@H](C(=O)N[C@@H](CC2CCNCC2)C(=O)NCC(=O)N2[C@H](C(=O)N[C@@H](Cc3ccc(Br)cc3)C(=O)N3CCC[C@H]3C(=O)N[C@H](Cc3ccc(-c4ccccc4)cc3)C(=O)O)C[C@@H]3CCCC[C@@H]32)NC(=O)CNC1=O` [Example 6] ({Malonyl(2,2-Me2,histaminyl)}-Q[hArg]D[dR]LGK[Ala(piperidin-4-yl)]G[Oic][Phe(4-Br)]P[dBip]-OH; lactam 3-7) the EC50 [1] was over 100000 nM, the EC50 [2] was 12.6 nM and the Emax [2] was 30.5%.
